We go through 22 compounds from PubChem BioAssay AID434987 (Southern Research Specialized Biocontainment Screening …, 2010).

One may read the IC50 as the midpoint of a concentration-inhibition curve. Broadly, the IC90 is the concentration needed for an effect of 90%. Lower therefore signals greater potency.

The source made the active and inactive calls. No rule for the calls is given here. Some results are limits rather than exact numbers.

The assay relates to M. tuberculosis H37Rv growth inhibition with meropenem. As to the kind of experiment: dose response, H37Rv, with and without meropenem (AID 434987).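 Also: growth over 7 days at 37 °C before Alamar Blue read on day 9.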
Where [1] appears, read: M. tuberculosis H37Rv growth inhibition, measured here: IC50 without meropenem.
Where [2] appears, read: M. tuberculosis H37Rv growth inhibition, measured here: IC90 without meropenem.
[3] abbreviates: measured here: IC90 with meropenem.

`CCCCC(=O)Nc1ccc(NC(=S)NC(=O)CCCCl)cc1OC`: the IC50 is > 50 µM (inactive). For the same compound, the IC50 under setting [1] was 94.9 µM. For the same compound, the concentration for an effect of 90% (IC90) under setting [2] is more than 100 µM. The compound further displayed an IC90 under setting [3] of more than 50 µM.

With `CCN=c1scc(-c2ccccc2)n1/N=C/c1ccccn1`, the IC50 is 93.2 µM (inactive). For the same compound, under setting [1], the IC50 was more than 100 µM. In addition, the 90% effect concentration (IC90) under setting [2] is more than 100 µM. For the same compound, under setting [3], the 90% effect concentration (IC90) was more than 100 µM.

Turning to `Cc1ccc(-c2[nH][nH]c(=O)c(=O)c2N=Nc2ccccc2)cc1`, the half-maximal inhibitory concentration (IC50) was 4.12 µM. The compound further gave an IC50 under setting [1] of 51.7 µM. The 90% effect concentration (IC90) under setting [2] is more than 100 µM. Under setting [3], this compound gave a 90% effect concentration (IC90) of 86.2 µM.

For the compound `O=C(Nc1ccc([N+](=O)[O-])cc1)c1cc2ccccc2nc1Cl`, the IC50 is > 100 µM (inactive). In addition, the IC50 under setting [1] was more than 100 µM. The compound further came in with an IC90 under setting [2] of more than 100 µM. This compound also gave an IC90 under setting [3] of more than 100 µM.

Take `COc1ccc(-c2csc(Nc3ncccc3C)n2)cc1OC`: the IC50 was 61.3 µM (inactive). In addition, the IC50 under setting [1] was more than 100 µM. The IC90 under setting [2] is more than 100 µM. The concentration for an effect of 90% (IC90) under setting [3] is more than 100 µM.

For `CN(C)c1ccc(N=Nc2cccc3ccoc23)cc1`, the IC50 is > 100 µM (inactive). The compound further showed an IC50 under setting [1] of more than 100 µM. Also, the IC90 under setting [2] is more than 100 µM. The same compound came in with a concentration for an effect of 90% (IC90) under setting [3] of more than 100 µM.

Take `O=C(O)c1cc(-c2ccco2)nc2ccc(Br)cc12`: the IC50 is > 100 µM (inactive). For the same compound, the concentration for half-maximal inhibition (IC50) under setting [1] is more than 100 µM. In addition, the 90% effect concentration (IC90) under setting [2] was more than 100 µM. Under setting [3], this compound yielded a 90% effect concentration (IC90) of more than 100 µM.

Consider `COc1ccc(CC2=C(O)c3ccccc3C(=O)C2=O)cc1`, for which the IC50 is 47.2 µM (inactive). This compound also yielded an IC50 under setting [1] of more than 100 µM. Under setting [2], this compound had an IC90 of more than 100 µM. Besides, the concentration for an effect of 90% (IC90) under setting [3] is more than 100 µM.

On to `NNC(=O)c1cccc(O)c1`, for which the concentration for half-maximal inhibition (IC50) is 9.97 µM. Moreover, the IC50 under setting [1] was found to be 79.5 µM. Besides, the concentration for an effect of 90% (IC90) under setting [2] is more than 100 µM. In addition, under setting [3], the concentration for an effect of 90% (IC90) is 73.9 µM.

With `CN(C)CC[C@@H](c1ccc(Br)cc1)c1ccccn1`, the IC50 was > 100 µM (inactive). The concentration for half-maximal inhibition (IC50) under setting [1] was more than 100 µM. The IC90 under setting [2] was more than 100 µM. In addition, the IC90 under setting [3] is more than 100 µM.

As to `Cc1nn(-c2ccccc2)c(Cl)c1CN(C(=O)CCl)c1cccc2ccccc12`, the IC50 is 18.7 µM (inactive). Under setting [1], this compound yielded an IC50 of 33 µM. The compound further returned a 90% effect concentration (IC90) under setting [2] of 53.4 µM. Moreover, the IC90 under setting [3] came to 48.2 µM.

As for `CCSc1nnc(NC(=O)C2Cc3ccccc3CN2C(=O)c2ccco2)s1` (stereo not drawn), the half-maximal inhibitory concentration (IC50) was 2.69 µM. The half-inhibitory concentration (IC50) under setting [1] was more than 100 µM. For the same compound, the IC90 under setting [2] is more than 100 µM. This compound displayed a concentration for an effect of 90% (IC90) under setting [3] of more than 100 µM.

Consider `CCc1ccccc1NC(=O)CNC(=O)c1cc(C2CC2)nn1-c1ccccc1`, for which the IC50 is > 100 µM (inactive). This compound also returned a half-maximal inhibitory concentration (IC50) under setting [1] of more than 100 µM. The compound further had an IC90 under setting [2] of more than 100 µM. Under setting [3], this compound yielded a concentration for an effect of 90% (IC90) of more than 100 µM.

For `CCCc1nc2oc3c(OCC)ncnc3c2c2c1COC(C)(C)C2`, the IC50 was 72.5 µM (inactive). The same compound yielded an IC50 under setting [1] of more than 100 µM. Also, under setting [2], the concentration for an effect of 90% (IC90) is more than 100 µM. Moreover, the 90% effect concentration (IC90) under setting [3] was more than 100 µM.

For the compound `COc1ccc(-c2csc(Nc3ccc(C)cn3)n2)cc1OC`, the IC50 is 44.3 µM (inactive). Further, the concentration for half-maximal inhibition (IC50) under setting [1] is more than 100 µM. Also, under setting [2], the 90% effect concentration (IC90) is more than 100 µM. Moreover, the IC90 under setting [3] is more than 100 µM.

Consider `CC(C)C(=O)Nc1ccc2c3c(cccc13)CC2`, for which the half-inhibitory concentration (IC50) is 19.4 µM. In addition, the half-maximal inhibitory concentration (IC50) under setting [1] was more than 100 µM. Also, the concentration for an effect of 90% (IC90) under setting [2] is more than 100 µM. Also, the IC90 under setting [3] was more than 100 µM.

In the case of `O=C(Nc1nnc(-c2ccco2)o1)c1ccc(S(=O)(=O)N2CCOCC2)cc1`, the IC50 is 24.5 µM. The concentration for half-maximal inhibition (IC50) under setting [1] came out at 63.5 µM. The compound further had an IC90 under setting [2] of more than 100 µM. Also, under setting [3], the IC90 was more than 100 µM.

For `COCc1nnc(NC(=O)c2ccc(S(=O)(=O)N(C)c3ccccc3)cc2)o1`, the IC50 is 17.4 µM (inactive). The IC50 under setting [1] is 40.3 µM. In addition, the IC90 under setting [2] was more than 100 µM. The compound also yielded a concentration for an effect of 90% (IC90) under setting [3] of more than 100 µM.

Turning to `Cc1c(-c2ccccc2)sc(Br)c1C(=O)N1CCOCC1`, the IC50 was > 100 µM (inactive). This compound returned an IC50 under setting [1] of more than 100 µM. In addition, the IC90 under setting [2] is more than 100 µM. The compound further registered an IC90 under setting [3] of more than 100 µM.

Turning to `N#Cc1c(SCC(=O)O)nc(N2CCCCC2)c2c1CCCC2`, the IC50 was 15.6 µM. Besides, the IC50 under setting [1] was found to be 49.6 µM. The IC90 under setting [2] is more than 100 µM. In addition, the 90% effect concentration (IC90) under setting [3] came out at 27 µM.

For `O=C(c1csc2c1CCCC2)n1cccn1`, the IC50 was 49.4 µM (inactive). Besides, under setting [1], the concentration for half-maximal inhibition (IC50) worked out at 97.3 µM. This compound showed a 90% effect concentration (IC90) under setting [2] of more than 100 µM. Under setting [3], the IC90 was more than 100 µM.

With `CCCCN=C1CC(C)(C)CC(=O)/C1=C(/O)CCC`, the IC50 is 18.9 µM (inactive). Under setting [1], this compound yielded a concentration for half-maximal inhibition (IC50) of 42.1 µM. This compound also came in with a concentration for an effect of 90% (IC90) under setting [2] of more than 100 µM. The compound also yielded a 90% effect concentration (IC90) under setting [3] of 28.7 µM.
